Assay results: ChEMBL document CHEMBL4118021, “Studies of TAK1-centered polypharmacology with novel covalent TAK1 inhibitors” (Bioorg Med Chem, 2017)
Calls of active or inactive are those of the source. The rule behind the calls is not given here.

Assays:
[1] = target: Hippocalcin-like protein 1 (Homo sapiens) (UniProt P37235); test: Binding affinity to HPCAL1 in human NCI-H358 cells at 1 uM by mass spectrometry based pull down assay; type: cell-based
[2] = target: Y-box-binding protein 3 (Homo sapiens) (UniProt P16989); test: Binding affinity to YBX3 in human NCI-H23 cells at 1 uM by mass spectrometry based pull down assay; type: cell-based
[3] = target: Pyrroline-5-carboxylate reductase 2 (Homo sapiens) (UniProt Q96C36); test: Binding affinity to PYCR2 in human NCI-H358 cells at 1 uM by mass spectrometry based pull down assay; type: cell-based
[4] = target: Serine/threonine-protein kinase WNK1 (Homo sapiens) (UniProt Q9H4A3); test: Binding affinity to WNK1 in human NCI-H23 cells at 1 uM by mass spectrometry based pull down assay; type: cell-based
[5] = target: Pyrroline-5-carboxylate reductase 1, mitochondrial (Homo sapiens) (UniProt P32322); test: Binding affinity to PYCR1 in human NCI-H358 cells at 1 uM by mass spectrometry based pull down assay; type: cell-based
[6] = target: Eukaryotic translation initiation factor 6 (Homo sapiens) (UniProt P56537); test: Binding affinity to EIF6 in human NCI-H23 cells at 1 uM by mass spectrometry based pull down assay; type: cell-based
[7] = target: Heterogeneous nuclear ribonucleoprotein H2 (Homo sapiens) (UniProt P55795); test: Binding affinity to HNRNPH2 in human NCI-H358 cells at 1 uM by mass spectrometry based pull down assay; type: cell-based
[8] = target: DNA mismatch repair protein Msh2 (Homo sapiens) (UniProt P43246); test: Binding affinity to MSH2 in human NCI-H23 cells at 1 uM by mass spectrometry based pull down assay; type: cell-based
[9] = target: Vigilin (Homo sapiens) (UniProt Q00341); test: Binding affinity to HDLBP in human NCI-H358 cells at 1 uM by mass spectrometry based pull down assay; type: cell-based
[10] = target: Thioredoxin-related transmembrane protein 1 (Homo sapiens) (UniProt Q9H3N1); test: Binding affinity to TMX1 in human NCI-H358 cells at 1 uM by mass spectrometry based pull down assay; type: cell-based
[11] = tested on: NCI-H23; test: Binding affinity to PSMA5 in human NCI-H23 cells at 1 uM by mass spectrometry based pull down assay; type: cell-based
[12] = target: HCLS1-associated protein X-1 (Homo sapiens) (UniProt O00165); test: Binding affinity to HAX1 in human NCI-H358 cells at 1 uM by mass spectrometry based pull down assay; type: cell-based
[13] = target: Translation initiation factor eIF2B subunit gamma (Homo sapiens) (UniProt Q9NR50); test: Binding affinity to EIF2B3 in human NCI-H358 cells at 1 uM by mass spectrometry based pull down assay; type: cell-based
[14] = target: Thymidylate kinase (Homo sapiens) (UniProt P23919); test: Binding affinity to DTYMK in human NCI-H23 cells at 1 uM by mass spectrometry based pull down assay; type: cell-based
[15] = target: Transmembrane emp24 domain-containing protein 10 (Homo sapiens) (UniProt P49755); test: Binding affinity to TMED10 in human NCI-H23 cells at 1 uM by mass spectrometry based pull down assay; type: cell-based
[16] = target: Poly(rC)-binding protein 1 (Homo sapiens) (UniProt Q15365); test: Binding affinity to PCBP1 in human NCI-H358 cells at 1 uM by mass spectrometry based pull down assay; type: cell-based
[17] = target: 80S Ribosome (Homo sapiens) (UniProt P08865+P42677+P62753+P15880+P23396+P61247+P62701+P22090+P46782+P62081+P62241+P46781+P46783+P62280+P25398+P62277+P62263+P62841+P62244+P62249+P08708+P62269+P39019+P60866+P63220+P62266+P62847+P62851+P62854+P62979+P62857+P62273+P62861+P39023+P36578+P46777+Q02878+P18124+P62424+P62917+P32969+P27635+P62906+P62913+P30050+P26373+P40429+P50914+P61313+P18621+Q07020+Q02543+P84098+P46778+P35268+P62829+P62750+P83731+P61254+P61353+P46776+P46779+P47914+P62888+P62899+P62910+P49207+P42766+P18077+Q9Y3U8+P83881+P61927+P61513+P63173+P62891+P62945+P05388+P05386); test: Binding affinity to RPS7 in human NCI-H23 cells at 1 uM by mass spectrometry based pull down assay; type: cell-based
[18] = target: Heterogeneous nuclear ribonucleoprotein H2 (Homo sapiens) (UniProt P55795); test: Binding affinity to HNRNPH2 in human NCI-H23 cells at 1 uM by mass spectrometry based pull down assay; type: cell-based
[19] = target: Reticulon-4 (Homo sapiens) (UniProt Q9NQC3); test: Binding affinity to RTN4 in human NCI-H23 cells at 1 uM by mass spectrometry based pull down assay; type: cell-based
[20] = target: TGF-beta-activated kinase 1 and MAP3K7-binding protein 2 (Homo sapiens) (UniProt Q9NYJ8); test: Binding affinity to TAB2 in human NCI-H23 cells at 1 uM by mass spectrometry based pull down assay; type: cell-based
[21] = target: Mitogen-activated protein kinase kinase kinase 20 (Homo sapiens) (UniProt Q9NYL2); test: Binding affinity to ZAK in human NCI-H358 cells at 1 uM by mass spectrometry based pull down assay; type: cell-based
[22] = target: Kinesin-1 heavy chain (Homo sapiens) (UniProt P33176); test: Binding affinity to KIF5B in human NCI-H23 cells at 1 uM by mass spectrometry based pull down assay; type: cell-based
[23] = target: Serine/threonine-protein kinase TBK1 (Homo sapiens) (UniProt Q9UHD2); test: Inhibition of TBK1 in human SKCO1 cells at 1 uM after 4 hrs using biotin labeled DIKPGNIMR probe by mass-spectrometric analysis relative to control; type: cell-based
[24] = target: Cyclin-dependent kinase 20 / CCRK (Homo sapiens) (UniProt Q8IZL9); test: Inhibition of CCRK in human SKCO1 cells at 1 uM after 4 hrs using biotin labeled DLKPANLLISASGQLK probe by mass-spectrometric analysis relative to control

Sequence of Heterogeneous nuclear ribonucleoprotein H2 (Homo sapiens) (P55795 whole entry): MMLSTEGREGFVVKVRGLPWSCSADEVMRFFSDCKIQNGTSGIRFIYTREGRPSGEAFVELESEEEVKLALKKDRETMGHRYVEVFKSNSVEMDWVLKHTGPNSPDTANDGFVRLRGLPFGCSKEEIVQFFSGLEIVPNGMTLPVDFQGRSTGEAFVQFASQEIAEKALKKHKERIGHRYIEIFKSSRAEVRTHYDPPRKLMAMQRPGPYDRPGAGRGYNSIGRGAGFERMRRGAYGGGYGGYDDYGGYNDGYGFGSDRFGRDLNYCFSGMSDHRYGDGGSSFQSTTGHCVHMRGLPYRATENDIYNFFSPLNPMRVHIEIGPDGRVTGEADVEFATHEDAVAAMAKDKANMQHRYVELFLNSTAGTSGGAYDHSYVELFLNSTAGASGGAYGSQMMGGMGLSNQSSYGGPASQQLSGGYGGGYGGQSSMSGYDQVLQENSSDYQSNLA
Sequence of Pyrroline-5-carboxylate reductase 2 (Homo sapiens) (Q96C36 whole entry): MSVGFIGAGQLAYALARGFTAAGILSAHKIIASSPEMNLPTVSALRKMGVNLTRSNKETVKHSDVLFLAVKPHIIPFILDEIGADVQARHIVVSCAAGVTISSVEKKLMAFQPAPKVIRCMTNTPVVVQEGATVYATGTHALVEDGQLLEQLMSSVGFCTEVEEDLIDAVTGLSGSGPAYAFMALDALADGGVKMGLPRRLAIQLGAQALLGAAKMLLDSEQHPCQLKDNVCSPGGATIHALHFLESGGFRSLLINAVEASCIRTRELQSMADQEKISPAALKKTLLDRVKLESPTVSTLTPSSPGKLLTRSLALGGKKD
Sequence of Vigilin (Homo sapiens) (Q00341 whole entry): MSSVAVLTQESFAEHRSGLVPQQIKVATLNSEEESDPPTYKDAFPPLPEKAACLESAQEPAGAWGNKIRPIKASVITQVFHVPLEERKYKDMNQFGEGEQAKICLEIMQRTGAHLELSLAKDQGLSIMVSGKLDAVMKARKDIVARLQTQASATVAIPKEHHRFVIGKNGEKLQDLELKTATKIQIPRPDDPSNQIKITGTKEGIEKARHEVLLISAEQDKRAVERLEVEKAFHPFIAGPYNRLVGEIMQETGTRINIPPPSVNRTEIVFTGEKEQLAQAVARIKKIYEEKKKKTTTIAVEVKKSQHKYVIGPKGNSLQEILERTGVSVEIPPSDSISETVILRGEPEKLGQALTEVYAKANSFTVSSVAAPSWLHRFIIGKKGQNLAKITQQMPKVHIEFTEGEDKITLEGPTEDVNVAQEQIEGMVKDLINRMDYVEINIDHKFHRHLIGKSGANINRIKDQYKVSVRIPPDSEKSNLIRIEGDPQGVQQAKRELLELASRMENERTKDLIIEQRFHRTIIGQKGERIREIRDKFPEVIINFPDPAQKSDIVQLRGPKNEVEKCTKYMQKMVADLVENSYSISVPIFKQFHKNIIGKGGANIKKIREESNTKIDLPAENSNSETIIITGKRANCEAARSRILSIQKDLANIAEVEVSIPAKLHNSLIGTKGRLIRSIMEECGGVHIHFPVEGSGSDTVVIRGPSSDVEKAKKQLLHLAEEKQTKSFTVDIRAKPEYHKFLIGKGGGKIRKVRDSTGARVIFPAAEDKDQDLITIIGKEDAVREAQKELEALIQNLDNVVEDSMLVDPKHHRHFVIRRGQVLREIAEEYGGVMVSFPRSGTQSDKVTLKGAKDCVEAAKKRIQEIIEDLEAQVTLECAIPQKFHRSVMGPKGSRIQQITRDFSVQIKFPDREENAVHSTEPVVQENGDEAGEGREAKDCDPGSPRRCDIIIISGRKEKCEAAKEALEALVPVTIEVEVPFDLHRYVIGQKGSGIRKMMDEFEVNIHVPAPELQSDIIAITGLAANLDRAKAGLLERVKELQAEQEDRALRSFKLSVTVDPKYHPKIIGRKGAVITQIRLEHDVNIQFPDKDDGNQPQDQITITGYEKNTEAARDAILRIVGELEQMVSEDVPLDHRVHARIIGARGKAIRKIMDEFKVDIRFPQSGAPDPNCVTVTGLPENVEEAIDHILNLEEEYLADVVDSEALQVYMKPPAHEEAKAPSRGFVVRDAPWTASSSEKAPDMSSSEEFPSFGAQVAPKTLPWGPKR
Sequence of TGF-beta-activated kinase 1 and MAP3K7-binding protein 2 (Homo sapiens) (Q9NYJ8 whole entry): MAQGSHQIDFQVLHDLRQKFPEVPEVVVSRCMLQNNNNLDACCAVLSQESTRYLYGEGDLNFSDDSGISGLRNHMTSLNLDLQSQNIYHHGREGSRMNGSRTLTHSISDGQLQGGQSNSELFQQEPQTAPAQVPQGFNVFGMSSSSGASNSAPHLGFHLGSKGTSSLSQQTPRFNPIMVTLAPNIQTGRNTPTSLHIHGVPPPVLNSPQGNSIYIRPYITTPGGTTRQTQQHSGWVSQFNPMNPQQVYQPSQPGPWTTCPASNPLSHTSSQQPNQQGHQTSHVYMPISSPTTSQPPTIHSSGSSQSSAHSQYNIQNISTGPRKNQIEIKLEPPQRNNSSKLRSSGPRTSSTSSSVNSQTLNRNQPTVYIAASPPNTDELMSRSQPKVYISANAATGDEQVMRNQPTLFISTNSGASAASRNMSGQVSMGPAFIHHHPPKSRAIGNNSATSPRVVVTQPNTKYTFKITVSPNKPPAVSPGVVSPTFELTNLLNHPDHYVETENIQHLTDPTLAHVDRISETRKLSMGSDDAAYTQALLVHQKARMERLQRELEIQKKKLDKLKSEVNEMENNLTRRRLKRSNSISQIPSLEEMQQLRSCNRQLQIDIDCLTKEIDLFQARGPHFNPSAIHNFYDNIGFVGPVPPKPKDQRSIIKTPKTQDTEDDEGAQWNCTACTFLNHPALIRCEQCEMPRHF
Sequence of Reticulon-4 (Homo sapiens) (Q9NQC3 whole entry): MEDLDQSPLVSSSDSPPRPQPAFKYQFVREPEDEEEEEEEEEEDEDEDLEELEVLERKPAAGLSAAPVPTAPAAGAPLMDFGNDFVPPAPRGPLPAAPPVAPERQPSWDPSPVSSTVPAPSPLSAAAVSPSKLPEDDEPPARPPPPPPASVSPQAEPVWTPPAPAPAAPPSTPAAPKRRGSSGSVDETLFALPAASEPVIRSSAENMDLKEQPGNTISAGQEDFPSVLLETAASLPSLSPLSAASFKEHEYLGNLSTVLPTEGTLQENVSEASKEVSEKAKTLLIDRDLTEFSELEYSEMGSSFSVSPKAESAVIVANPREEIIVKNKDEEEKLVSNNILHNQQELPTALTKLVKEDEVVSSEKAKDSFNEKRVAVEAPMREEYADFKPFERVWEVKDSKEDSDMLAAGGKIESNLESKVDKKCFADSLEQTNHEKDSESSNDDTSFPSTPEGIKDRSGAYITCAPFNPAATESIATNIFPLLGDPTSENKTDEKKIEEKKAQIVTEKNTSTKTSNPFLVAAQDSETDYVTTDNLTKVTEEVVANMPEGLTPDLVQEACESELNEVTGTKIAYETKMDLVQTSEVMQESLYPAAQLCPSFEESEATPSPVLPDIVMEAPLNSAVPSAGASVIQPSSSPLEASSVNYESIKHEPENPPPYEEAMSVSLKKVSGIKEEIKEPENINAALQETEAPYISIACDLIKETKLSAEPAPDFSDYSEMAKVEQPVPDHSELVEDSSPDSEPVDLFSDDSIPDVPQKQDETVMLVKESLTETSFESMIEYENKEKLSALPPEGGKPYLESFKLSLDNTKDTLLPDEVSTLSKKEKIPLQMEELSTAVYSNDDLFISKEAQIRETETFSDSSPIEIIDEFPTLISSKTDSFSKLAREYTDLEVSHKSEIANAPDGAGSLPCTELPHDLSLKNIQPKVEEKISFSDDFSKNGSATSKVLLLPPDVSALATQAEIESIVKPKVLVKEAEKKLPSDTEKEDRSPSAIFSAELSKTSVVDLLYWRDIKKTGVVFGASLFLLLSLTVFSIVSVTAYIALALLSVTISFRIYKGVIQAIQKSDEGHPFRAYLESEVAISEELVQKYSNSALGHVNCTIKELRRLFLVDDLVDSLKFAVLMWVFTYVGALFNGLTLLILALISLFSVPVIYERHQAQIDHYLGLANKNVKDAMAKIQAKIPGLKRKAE
Sequence of Translation initiation factor eIF2B subunit gamma (Homo sapiens) (Q9NR50 whole entry): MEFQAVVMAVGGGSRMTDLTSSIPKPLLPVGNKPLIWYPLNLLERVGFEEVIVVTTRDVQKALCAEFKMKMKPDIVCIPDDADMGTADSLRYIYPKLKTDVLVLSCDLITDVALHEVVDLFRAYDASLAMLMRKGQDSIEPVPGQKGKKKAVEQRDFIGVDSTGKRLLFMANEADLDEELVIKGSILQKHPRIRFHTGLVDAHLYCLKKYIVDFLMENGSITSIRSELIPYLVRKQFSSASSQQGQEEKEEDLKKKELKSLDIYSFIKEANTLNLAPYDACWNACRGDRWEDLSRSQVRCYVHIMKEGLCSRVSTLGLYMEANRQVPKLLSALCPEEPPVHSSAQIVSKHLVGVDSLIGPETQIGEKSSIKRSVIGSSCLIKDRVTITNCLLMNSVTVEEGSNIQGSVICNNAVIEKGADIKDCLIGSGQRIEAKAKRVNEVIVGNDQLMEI
Sequence of Pyrroline-5-carboxylate reductase 1, mitochondrial (Homo sapiens) (P32322 whole entry): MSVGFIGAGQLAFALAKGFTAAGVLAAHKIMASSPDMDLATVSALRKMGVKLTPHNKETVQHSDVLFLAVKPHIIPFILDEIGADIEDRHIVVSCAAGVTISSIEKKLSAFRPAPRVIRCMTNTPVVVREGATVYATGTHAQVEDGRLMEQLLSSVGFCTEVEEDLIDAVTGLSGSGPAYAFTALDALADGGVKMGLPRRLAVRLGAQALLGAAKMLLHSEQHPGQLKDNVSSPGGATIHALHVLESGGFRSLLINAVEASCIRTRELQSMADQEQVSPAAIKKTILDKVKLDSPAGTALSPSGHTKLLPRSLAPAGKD
Sequence of Thymidylate kinase (Homo sapiens) (P23919 whole entry, the tested form may be a part): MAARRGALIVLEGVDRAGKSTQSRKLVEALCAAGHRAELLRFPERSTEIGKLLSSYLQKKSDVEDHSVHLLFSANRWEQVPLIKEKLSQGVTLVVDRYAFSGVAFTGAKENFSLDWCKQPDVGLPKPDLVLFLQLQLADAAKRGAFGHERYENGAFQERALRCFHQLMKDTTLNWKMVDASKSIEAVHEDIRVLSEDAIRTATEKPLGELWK

`C=CC(=O)Nc1ccccc1Nc1nc(Nc2ccc(N3CCN(CCOCCOCCOCCNC(=O)CCCC[C@@H]4SC[C@@H]5NC(=O)N[C@@H]54)CC3)cc2)ncc1Cl` was tested, and the Activity [1] was “Active”, the Activity [2] was “Active” and the Activity [3] was “Active”. The Activity [4] was “Active”, the Activity [5] was “Active” and the Activity [6] was “Active”. The Activity [7] was “Active”, the Activity [8] was “Active” and the Activity [9] was “Active”. The Activity [10] was “Active”, the Activity [11] was “Active” and the Activity [12] was “Active”. For the same compound, the Activity [13] was “Active”, the Activity [14] was “Active” and the Activity [15] was “Active”. The Activity [16] was “Active”, the Activity [17] was “Active” and the Activity [18] was “Active”. For the same compound, the Activity [19] was “Active”, the Activity [20] was “Active” and the Activity [21] was “Active”. The Activity [22] was “Active”.

`C=CC(=O)Nc1ccccc1Nc1nc(Nc2ccc(N3CCN(C)CC3)cc2)ncc1Cl` showed an inhibition [23] of 59.3%.

`C=CC(=O)Nc1ccccc1Oc1nc(Nc2cnn(CCOC)c2)ncc1Cl` was tested, and the inhibition [24] was -9%.
